In PubChem BioAssay AID256 (DTP/NCI, 2004):
Several values for one entry are separate records, joined by “and”; a condition that tells them apart may be missing. Equal values may be shown once. Inconclusive results and toxic doses are left out. How the source made its calls: active means survival T/C of 150% or more; inactive means T/C below 125% in these data.

Test system: CD2F1 mice, L1210 leukemia ip, survival T/C
Assay: NCI In Vivo Anticancer Drug Screen. Data for tumor model L1210 Leukemia (intraperitoneal) in CD2F1 (CDF1) mice
Details: higher = longer survival
Outline: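 Tumor-bearing mice (transplanted tumor) were split into treated and vehicle control groups, and the measured endpoint of each treated group was divided by that of its vehicle controls.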

[1] = endpoint: mean survival time, dose: 100.0 mg/kg/injection, schedule: Q01DX009 (ip), vehicle: saline with Tween-80
[2] = endpoint: mean survival time, dose: 200.0 mg/kg/injection, schedule: Q01DX009 (ip), vehicle: saline with Tween-80
[3] = endpoint: mean survival time, dose: 100.0 mg/kg/injection, schedule: Q01DX001 (ip), vehicle: saline with Tween-80
[4] = endpoint: mean survival time, dose: 200.0 mg/kg/injection, schedule: Q01DX001 (ip), vehicle: saline with Tween-80
[5] = endpoint: mean survival time, dose: 100.0 mg/kg/injection, schedule: Q04DX003 (ip), vehicle: saline with Tween-80
[6] = endpoint: mean survival time, dose: 200.0 mg/kg/injection, schedule: Q04DX003 (ip), vehicle: saline with Tween-80
[7] = endpoint: mean survival time, dose: 400.0 mg/kg/injection, schedule: Q04DX003 (ip), vehicle: saline with Tween-80
[8] = endpoint: mean survival time, dose: 50.0 mg/kg/injection, schedule: Q01DX009 (ip), vehicle: saline with Tween-80

Measured: T/C

O=[N+]([O-])c1cc(S(=O)(=O)c2ccc(N3CCCC3)c([N+](=O)[O-])c2)ccc1N1CCCC1
inactive: [1] 102 % of control | [2] 95 % of control | endpoint: mean survival time, dose: 400.0 mg/kg/injection, schedule: Q01DX009 (ip), vehicle: saline with Tween-80 104 % of control

Cc1cccc(C)c1NC(=O)CCl
inactive: [3] 103 % of control | [4] 100 % of control

O=C1C=C(c2ccccc2)OC(=O)C1C(=O)c1ccccc1 (stereo unspecified)
inactive: [3] 98 % of control | [4] 94 % of control

N#CC(N)=O
inactive: endpoint: mean survival time, dose: 100.0 mg/kg/injection, schedule: Q04DX002 (ip), vehicle: saline 97 % of control | endpoint: mean survival time, dose: 200.0 mg/kg/injection, schedule: Q04DX002 (ip), vehicle: saline 91 % of control | endpoint: mean survival time, dose: 400.0 mg/kg/injection, schedule: Q04DX002 (ip), vehicle: saline 94 % of control

CC1(C)CC2(OC2c2cccc(Cl)c2)C(=O)c2ccccc21 (stereo unspecified)
inactive: endpoint: mean survival time, dose: 100.0 mg/kg/injection, schedule: Q01DX009 (ip), vehicle: other 94 % of control | endpoint: mean survival time, dose: 200.0 mg/kg/injection, schedule: Q01DX009 (ip), vehicle: other 94 % of control | endpoint: mean survival time, dose: 400.0 mg/kg/injection, schedule: Q01DX009 (ip), vehicle: other 91 % of control

O=C(NCc1ccccc1)c1ccc([N+](=O)[O-])cc1
inactive: endpoint: mean survival time, dose: 100.0 mg/kg/injection, schedule: Q04DX002 (ip), vehicle: other 97 % of control | endpoint: mean survival time, dose: 200.0 mg/kg/injection, schedule: Q04DX002 (ip), vehicle: other 101 % of control | endpoint: mean survival time, dose: 400.0 mg/kg/injection, schedule: Q04DX002 (ip), vehicle: other 97 % of control

COc1ccc(Nc2ccccc2Cl)c(C(=O)O)c1
inactive: [5] 98 % of control | [6] 102 % of control | [7] 102 % of control

CC1CC(=O)C(CCC#N)=C(O)C1 (stereo unspecified)
inactive: [5] 94 % of control | [6] 91 % of control | [7] 91 % of control

Cc1ccccc1N=C(c1ccccc1)C1C(=O)c2ccccc2C1=O
inactive: endpoint: median survival time, dose: 50.0 mg/kg/injection, schedule: Q01DX005 (ip), vehicle: DMSO 103 % of control | endpoint: median survival time, dose: 100.0 mg/kg/injection, schedule: Q01DX005 (ip), vehicle: DMSO 100 % of control | endpoint: median survival time, dose: 200.0 mg/kg/injection, schedule: Q01DX005 (ip), vehicle: DMSO 103 % of control | endpoint: median survival time, dose: 400.0 mg/kg/injection, schedule: Q01DX005 (ip), vehicle: DMSO 101 % of control | endpoint: median survival time, dose: 800.0 mg/kg/injection, schedule: Q01DX005 (ip), vehicle: DMSO 100 % of control

COC1=C(C)C(=O)C2=C(C1=O)C(CO)N1C(C#N)C3CC4C(C1C2N1CCOC41)N3C (stereo unspecified)
inactive: endpoint: median survival time, dose: 0.12 mg/kg/injection, schedule: Q01DX005 (ip), vehicle: acid diluted with saline 102 % of control | endpoint: median survival time, dose: 0.12 mg/kg/injection, schedule: Q01DX009 (ip), vehicle: saline + alcohol 111 % of control | endpoint: median survival time, dose: 0.25 mg/kg/injection, schedule: Q01DX005 (ip), vehicle: acid diluted with saline 102 % of control | endpoint: median survival time, dose: 0.25 mg/kg/injection, schedule: Q01DX009 (ip), vehicle: saline + alcohol 113 % of control | endpoint: median survival time, dose: 0.5 mg/kg/injection, schedule: Q01DX005 (ip), vehicle: acid diluted with saline 105 % of control | endpoint: median survival time, dose: 0.5 mg/kg/injection, schedule: Q01DX009 (ip), vehicle: saline + alcohol 111 % of control | endpoint: median survival time, dose: 1.0 mg/kg/injection, schedule: Q01DX005 (ip), vehicle: acid diluted with saline 104 % of control | endpoint: median survival time, dose: 1.0 mg/kg/injection, schedule: Q01DX009 (ip), vehicle: saline + alcohol 108 % of control

O=C(Nc1ccccc1)C(Cl)Cl
inactive: [5] 103 % of control | [6] 103 % of control | [7] 97 % of control

O=C(N/N=C/c1ccc2c(c1)OCO2)c1cccc(C(F)(F)F)c1
inactive: endpoint: mean survival time, dose: 12.5 mg/kg/injection, schedule: Q01DX009 (ip), vehicle: saline with Tween-80 95 % of control | endpoint: mean survival time, dose: 25.0 mg/kg/injection, schedule: Q01DX009 (ip), vehicle: saline with Tween-80 91 % of control | [8] 91 % of control and 104 % of control | [2] 89 % of control

CN(C)c1ccc(N=Nc2ccc(S(=O)(=O)O)cc2)cc1.CN(C)c1ccc(N=Nc2ccc(S(=O)(=O)O)cc2)cc1.O.O.[NH-]C1CCCCC1[NH-].[Pt+2]
inactive: endpoint: median survival time, dose: 3.12 mg/kg/injection, schedule: Q04DX003 (ip), vehicle: saline 96 % of control | endpoint: median survival time, dose: 6.25 mg/kg/injection, schedule: Q04DX003 (ip), vehicle: saline 106 % of control | endpoint: median survival time, dose: 12.5 mg/kg/injection, schedule: Q04DX003 (ip), vehicle: saline 101 % of control | endpoint: median survival time, dose: 25.0 mg/kg/injection, schedule: Q04DX003 (ip), vehicle: saline 100 % of control | endpoint: median survival time, dose: 50.0 mg/kg/injection, schedule: Q04DX003 (ip), vehicle: saline 98 % of control | endpoint: median survival time, dose: 100.0 mg/kg/injection, schedule: Q04DX003 (ip), vehicle: saline 105 % of control | endpoint: median survival time, dose: 200.0 mg/kg/injection, schedule: Q04DX003 (ip), vehicle: saline 115 % of control

O=C1Nc2ccccc2C1=O
inactive: endpoint: mean survival time, dose: 100.0 mg/kg/injection, schedule: Q01DX001 (ip), vehicle: Klucel (hydroxypropylcellulose) (HPC) 96 % of control | endpoint: mean survival time, dose: 200.0 mg/kg/injection, schedule: Q01DX001 (ip), vehicle: Klucel (hydroxypropylcellulose) (HPC) 102 % of control | endpoint: mean survival time, dose: 400.0 mg/kg/injection, schedule: Q01DX001 (ip), vehicle: Klucel (hydroxypropylcellulose) (HPC) 101 % of control

Cc1cccc[n+]1[O-]
inactive: endpoint: mean survival time, dose: 100.0 mg/kg/injection, schedule: Q04DX003 (ip), vehicle: saline 101 % of control | endpoint: mean survival time, dose: 200.0 mg/kg/injection, schedule: Q04DX003 (ip), vehicle: saline 98 % of control | endpoint: mean survival time, dose: 400.0 mg/kg/injection, schedule: Q04DX003 (ip), vehicle: saline 88 % of control

CCCCCCCCCCCCCCCCCCCCc1ccccc1
inactive: endpoint: mean survival time, dose: 100.0 mg/kg/injection, schedule: Q04DX002 (ip), vehicle: Klucel (hydroxypropylcellulose) (HPC) 97 % of control | endpoint: mean survival time, dose: 200.0 mg/kg/injection, schedule: Q04DX002 (ip), vehicle: Klucel (hydroxypropylcellulose) (HPC) 94 % of control | endpoint: mean survival time, dose: 400.0 mg/kg/injection, schedule: Q04DX002 (ip), vehicle: Klucel (hydroxypropylcellulose) (HPC) 90 % of control

COc1ccc(C(C(N)=O)N2CCCC2)cc1 (stereo unspecified)
inactive: [1] 89 % of control | [2] 90 % of control

Cn1cnc2ccc(Cl)cc21
inactive: [8] 102 % of control | [1] 98 % of control | [2] 95 % of control

CCCCCCCCCCCOc1ccc(Cl)cc1Cl
inactive: endpoint: mean survival time, dose: 100.0 mg/kg/injection, schedule: Q04DX002 (ip), vehicle: saline with Tween-80 90 % of control | endpoint: mean survival time, dose: 200.0 mg/kg/injection, schedule: Q04DX002 (ip), vehicle: saline with Tween-80 93 % of control | endpoint: mean survival time, dose: 400.0 mg/kg/injection, schedule: Q04DX002 (ip), vehicle: saline with Tween-80 86 % of control

COC(=O)C1(C)CCCC2(C)C1CCC13C2CC1C1(C(C)C)OC31 (stereo unspecified)
inactive: [5] 89 % of control | [6] 92 % of control

O=C(Nc1cc(S(=O)(=O)O)ccc1Oc1ccccc1Cl)Nc1cc(S(=O)(=O)O)ccc1Oc1ccccc1Cl
inactive: endpoint: mean survival time, dose: 100.0 mg/kg/injection, schedule: Q01DX009 (ip), vehicle: Klucel (hydroxypropylcellulose) (HPC) 101 % of control | [5] 95 % of control | endpoint: mean survival time, dose: 200.0 mg/kg/injection, schedule: Q01DX009 (ip), vehicle: Klucel (hydroxypropylcellulose) (HPC) 98 % of control | [6] 95 % of control | endpoint: mean survival time, dose: 400.0 mg/kg/injection, schedule: Q01DX009 (ip), vehicle: Klucel (hydroxypropylcellulose) (HPC) 97 % of control | [7] 98 % of control

[Pd+2].[S-]CC[S-]
inactive: endpoint: mean survival time, dose: 3.13 mg/kg/injection, schedule: Q04DX003 (ip), vehicle: distilled water + Tween-80 101 % of control | endpoint: mean survival time, dose: 6.25 mg/kg/injection, schedule: Q04DX003 (ip), vehicle: distilled water + Tween-80 102 % of control | endpoint: mean survival time, dose: 12.5 mg/kg/injection, schedule: Q04DX003 (ip), vehicle: distilled water + Tween-80 101 % of control | endpoint: mean survival time, dose: 25.0 mg/kg/injection, schedule: Q04DX003 (ip), vehicle: distilled water + Tween-80 104 % of control | endpoint: mean survival time, dose: 50.0 mg/kg/injection, schedule: Q04DX003 (ip), vehicle: distilled water + Tween-80 95 % of control | endpoint: mean survival time, dose: 100.0 mg/kg/injection, schedule: Q04DX003 (ip), vehicle: distilled water + Tween-80 95 % of control | endpoint: mean survival time, dose: 200.0 mg/kg/injection, schedule: Q04DX003 (ip), vehicle: distilled water + Tween-80 95 % of control

COC1CC2C[CH]([Hg][Cl])C1C2 (stereo unspecified)
inactive: endpoint: mean survival time, dose: 0.75 mg/kg/injection, schedule: Q01DX009 (ip), vehicle: saline 106 % of control | endpoint: mean survival time, dose: 1.5 mg/kg/injection, schedule: Q01DX009 (ip), vehicle: saline 106 % of control | endpoint: mean survival time, dose: 3.0 mg/kg/injection, schedule: Q01DX009 (ip), vehicle: saline 103 % of control | endpoint: mean survival time, dose: 3.13 mg/kg/injection, schedule: Q01DX009 (ip), vehicle: saline with Tween-80 97 % of control | endpoint: mean survival time, dose: 6.25 mg/kg/injection, schedule: Q01DX009 (ip), vehicle: saline with Tween-80 103 % of control
